The values below come from patent US11319376B2, “Combination of glucagon receptor antagonists and PI3K pathway inhibitors for the treatment of cancer” (REMD Biotherapeutics, Inc., priority 2016, dated 2022).

The subject of one series is C57BL/6 mice. Kind of series: Effect of REMD2.59c pretreatment on induction of hyperglycemia by PI3K/Akt pathway inhibitors in C57BL/6 fed mice. The conditions noted are these: fed blood glucose, −24 h pretreatment ASN vehicle or REMD2.59c 7 mg/kg i.p., mean ± sd, n=3; for 2 h Glucose: 2 h after single p.o. dose (BYL719 50, BKM120 50, GDC-0980 10, MK2206 150, GSK690693 30, GDC-0068 10 or 100, OSI-906 100 mg/kg); for 4 h Glucose: 4 h after single p.o. dose (same doses as 2 h). It counts as in vivo, mouse.

The next series has as its target ATR (Homo sapiens, UniProt Q13535). The following applies: read-out: Target Selectivity (IC50) ATR; cited from earlier work.
Another series concerns the target CSF1R (Homo sapiens, UniProt P07333). The conditions noted are these: read-out: Target Selectivity (IC50) CSF1R; cited from earlier work.
Series [1] concerns cancer patient of diverse malignancies. The conditions noted are these: cancer patients; cited from earlier work.
For a further series, the target named is VPS34 (Homo sapiens, UniProt Q8NEB9). The following applies: read-out: Target Selectivity (IC50) VPS34; cited from earlier work.
Another series has as its target PI4Kβ (Homo sapiens, UniProt Q9UBF8). The following applies: read-out: Target Selectivity (IC50) PI4Kβ; cited from earlier work.
The next series has as its target mTOR (Homo sapiens, UniProt P42345). The conditions noted are these: read-out: Target Selectivity (IC50) mTOR; cited from earlier work.
The next series has as its target DNAPK (Homo sapiens, UniProt P78527). The conditions noted are these: read-out: Target Selectivity (IC50) DNAPK; cited from earlier work.
The next series addresses p70S6K (Homo sapiens, UniProt P23443). The conditions noted are these: read-out: Target Selectivity (IC50) p70S6K; cited from earlier work.
The next series deals with CD-17 scid mice. The following applies: cited from earlier work; for effect on GSK690693-induced hyperglycemia: CD-17 scid mice.
The subject of a further series is BALB/c athymic nude mice. Kind of series: Glucose and insulin response to MK2206 with/without REMD2.59c pretreatment in BALB/c athymic nude mice (MiaPaCa2 tumor bearing or naive). The conditions noted are these: for −0.5 h Glucose: 0.5 h before MK2206 dosing. Type of series: in vivo, mouse.
The subject of series [2] is patients with type 1 diabetes. The conditions noted are these: single dose 70 mg subcutaneous; cited from earlier work.

ATR, sequence (Q13535 whole entry): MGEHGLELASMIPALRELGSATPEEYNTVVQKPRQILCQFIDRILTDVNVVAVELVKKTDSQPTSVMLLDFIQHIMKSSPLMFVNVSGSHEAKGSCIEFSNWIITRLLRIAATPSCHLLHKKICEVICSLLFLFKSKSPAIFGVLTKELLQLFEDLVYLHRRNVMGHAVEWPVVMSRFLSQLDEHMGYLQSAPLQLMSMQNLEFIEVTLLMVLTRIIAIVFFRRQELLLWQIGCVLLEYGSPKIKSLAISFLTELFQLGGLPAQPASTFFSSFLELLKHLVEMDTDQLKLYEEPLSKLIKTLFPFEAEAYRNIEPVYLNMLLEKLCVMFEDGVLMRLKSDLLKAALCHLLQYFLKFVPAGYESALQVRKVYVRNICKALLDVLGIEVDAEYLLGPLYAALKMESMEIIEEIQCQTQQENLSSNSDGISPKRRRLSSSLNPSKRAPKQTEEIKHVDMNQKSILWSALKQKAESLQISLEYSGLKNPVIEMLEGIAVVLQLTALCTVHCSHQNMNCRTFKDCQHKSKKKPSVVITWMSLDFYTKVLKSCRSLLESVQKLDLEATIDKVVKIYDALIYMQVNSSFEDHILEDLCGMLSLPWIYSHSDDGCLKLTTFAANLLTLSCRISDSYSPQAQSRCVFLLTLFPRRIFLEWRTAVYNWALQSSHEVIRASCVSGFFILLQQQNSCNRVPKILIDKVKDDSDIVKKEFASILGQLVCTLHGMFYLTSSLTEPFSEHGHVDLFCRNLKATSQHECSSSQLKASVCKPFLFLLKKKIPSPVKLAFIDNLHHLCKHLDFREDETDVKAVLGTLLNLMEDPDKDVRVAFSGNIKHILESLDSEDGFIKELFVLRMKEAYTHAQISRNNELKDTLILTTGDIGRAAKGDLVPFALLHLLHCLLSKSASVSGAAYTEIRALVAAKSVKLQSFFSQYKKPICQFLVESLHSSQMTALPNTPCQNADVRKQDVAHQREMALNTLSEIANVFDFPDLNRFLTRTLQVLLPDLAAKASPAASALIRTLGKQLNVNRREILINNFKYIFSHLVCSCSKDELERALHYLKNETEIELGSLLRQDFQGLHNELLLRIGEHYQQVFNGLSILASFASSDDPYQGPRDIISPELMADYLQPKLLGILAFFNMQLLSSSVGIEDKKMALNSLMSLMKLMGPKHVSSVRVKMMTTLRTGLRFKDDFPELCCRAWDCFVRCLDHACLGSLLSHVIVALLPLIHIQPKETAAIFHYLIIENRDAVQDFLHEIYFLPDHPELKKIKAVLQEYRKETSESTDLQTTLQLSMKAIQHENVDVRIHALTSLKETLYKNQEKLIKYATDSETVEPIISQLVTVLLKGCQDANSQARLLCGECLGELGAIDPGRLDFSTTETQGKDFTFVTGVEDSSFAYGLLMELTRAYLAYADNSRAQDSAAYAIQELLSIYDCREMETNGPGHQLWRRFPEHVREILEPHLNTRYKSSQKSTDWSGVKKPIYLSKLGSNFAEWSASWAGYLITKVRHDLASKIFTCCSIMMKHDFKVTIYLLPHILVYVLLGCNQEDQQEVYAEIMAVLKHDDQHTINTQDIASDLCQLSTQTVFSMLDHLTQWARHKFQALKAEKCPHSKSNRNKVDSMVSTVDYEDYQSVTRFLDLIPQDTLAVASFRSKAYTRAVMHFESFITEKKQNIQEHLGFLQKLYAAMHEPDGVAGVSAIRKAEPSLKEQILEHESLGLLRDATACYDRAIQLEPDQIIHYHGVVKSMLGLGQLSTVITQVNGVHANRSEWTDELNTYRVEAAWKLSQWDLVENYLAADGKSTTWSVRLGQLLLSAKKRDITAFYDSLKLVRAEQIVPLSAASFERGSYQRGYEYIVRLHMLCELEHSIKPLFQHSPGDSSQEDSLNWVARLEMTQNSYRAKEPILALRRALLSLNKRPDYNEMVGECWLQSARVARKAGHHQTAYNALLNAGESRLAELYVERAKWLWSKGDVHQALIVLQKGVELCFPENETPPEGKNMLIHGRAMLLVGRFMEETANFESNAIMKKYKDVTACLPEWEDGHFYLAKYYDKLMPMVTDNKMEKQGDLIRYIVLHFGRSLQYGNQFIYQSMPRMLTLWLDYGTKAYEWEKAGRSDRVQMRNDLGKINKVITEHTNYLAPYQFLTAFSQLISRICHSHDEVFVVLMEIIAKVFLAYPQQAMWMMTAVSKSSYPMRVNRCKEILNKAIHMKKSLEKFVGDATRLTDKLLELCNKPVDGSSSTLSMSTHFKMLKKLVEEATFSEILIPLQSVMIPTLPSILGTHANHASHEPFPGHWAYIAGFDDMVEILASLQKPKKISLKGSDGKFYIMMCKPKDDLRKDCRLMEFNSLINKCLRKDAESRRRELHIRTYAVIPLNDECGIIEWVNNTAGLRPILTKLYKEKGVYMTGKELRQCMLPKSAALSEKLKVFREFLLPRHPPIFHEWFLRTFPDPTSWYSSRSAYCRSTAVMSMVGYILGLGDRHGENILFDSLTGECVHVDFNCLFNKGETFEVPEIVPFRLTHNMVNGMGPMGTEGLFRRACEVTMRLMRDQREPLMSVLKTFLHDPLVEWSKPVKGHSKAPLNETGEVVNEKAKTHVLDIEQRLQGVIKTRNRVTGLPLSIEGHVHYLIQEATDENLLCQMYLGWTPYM
ATR, sequence (Q8WXE1 whole entry partner): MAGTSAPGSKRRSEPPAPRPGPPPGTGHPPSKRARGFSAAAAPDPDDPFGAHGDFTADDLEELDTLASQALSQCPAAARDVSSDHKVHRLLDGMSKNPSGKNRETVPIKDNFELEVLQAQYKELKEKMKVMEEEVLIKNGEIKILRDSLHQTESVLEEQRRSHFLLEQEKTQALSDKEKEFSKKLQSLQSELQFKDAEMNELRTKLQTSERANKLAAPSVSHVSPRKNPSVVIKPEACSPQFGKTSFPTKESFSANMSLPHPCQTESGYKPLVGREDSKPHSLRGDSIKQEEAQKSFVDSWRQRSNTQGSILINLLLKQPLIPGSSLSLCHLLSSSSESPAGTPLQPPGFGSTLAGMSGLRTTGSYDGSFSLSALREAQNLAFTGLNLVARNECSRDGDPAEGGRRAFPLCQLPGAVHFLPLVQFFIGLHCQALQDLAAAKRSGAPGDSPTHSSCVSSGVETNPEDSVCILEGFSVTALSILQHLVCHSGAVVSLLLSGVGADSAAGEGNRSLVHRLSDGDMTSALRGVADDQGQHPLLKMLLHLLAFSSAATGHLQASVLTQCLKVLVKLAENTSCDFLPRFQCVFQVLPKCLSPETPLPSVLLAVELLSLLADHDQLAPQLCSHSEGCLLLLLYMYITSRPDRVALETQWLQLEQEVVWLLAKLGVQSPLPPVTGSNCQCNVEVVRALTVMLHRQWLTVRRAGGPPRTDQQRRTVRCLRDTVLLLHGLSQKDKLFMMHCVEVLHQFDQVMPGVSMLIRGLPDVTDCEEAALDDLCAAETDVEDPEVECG
CSF1R, sequence (P07333 20-972, species assumed): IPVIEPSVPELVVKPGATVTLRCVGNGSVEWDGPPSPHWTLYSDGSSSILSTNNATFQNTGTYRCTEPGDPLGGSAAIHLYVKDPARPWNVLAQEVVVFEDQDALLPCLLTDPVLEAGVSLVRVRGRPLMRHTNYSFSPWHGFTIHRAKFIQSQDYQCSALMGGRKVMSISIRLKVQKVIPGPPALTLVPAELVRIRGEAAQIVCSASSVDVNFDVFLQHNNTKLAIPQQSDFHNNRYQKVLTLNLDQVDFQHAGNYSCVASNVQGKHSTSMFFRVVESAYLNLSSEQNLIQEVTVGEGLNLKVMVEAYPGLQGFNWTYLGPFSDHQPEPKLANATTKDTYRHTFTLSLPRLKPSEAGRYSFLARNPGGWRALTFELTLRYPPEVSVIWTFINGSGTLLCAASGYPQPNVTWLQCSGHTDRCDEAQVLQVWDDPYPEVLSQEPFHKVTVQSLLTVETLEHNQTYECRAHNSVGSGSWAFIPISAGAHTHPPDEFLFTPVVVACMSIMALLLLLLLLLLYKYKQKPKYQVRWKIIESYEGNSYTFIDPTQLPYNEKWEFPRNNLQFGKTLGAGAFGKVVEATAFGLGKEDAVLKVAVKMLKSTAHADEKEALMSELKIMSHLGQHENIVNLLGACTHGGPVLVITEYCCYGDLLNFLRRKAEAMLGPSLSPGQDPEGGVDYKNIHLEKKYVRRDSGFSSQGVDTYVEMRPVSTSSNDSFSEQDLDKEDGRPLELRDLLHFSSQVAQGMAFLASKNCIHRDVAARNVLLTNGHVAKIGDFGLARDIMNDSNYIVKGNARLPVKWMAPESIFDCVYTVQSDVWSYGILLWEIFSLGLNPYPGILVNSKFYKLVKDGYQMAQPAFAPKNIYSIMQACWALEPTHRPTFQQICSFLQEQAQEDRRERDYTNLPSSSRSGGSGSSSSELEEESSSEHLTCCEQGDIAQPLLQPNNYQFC
p70S6K, sequence (P23443 whole entry): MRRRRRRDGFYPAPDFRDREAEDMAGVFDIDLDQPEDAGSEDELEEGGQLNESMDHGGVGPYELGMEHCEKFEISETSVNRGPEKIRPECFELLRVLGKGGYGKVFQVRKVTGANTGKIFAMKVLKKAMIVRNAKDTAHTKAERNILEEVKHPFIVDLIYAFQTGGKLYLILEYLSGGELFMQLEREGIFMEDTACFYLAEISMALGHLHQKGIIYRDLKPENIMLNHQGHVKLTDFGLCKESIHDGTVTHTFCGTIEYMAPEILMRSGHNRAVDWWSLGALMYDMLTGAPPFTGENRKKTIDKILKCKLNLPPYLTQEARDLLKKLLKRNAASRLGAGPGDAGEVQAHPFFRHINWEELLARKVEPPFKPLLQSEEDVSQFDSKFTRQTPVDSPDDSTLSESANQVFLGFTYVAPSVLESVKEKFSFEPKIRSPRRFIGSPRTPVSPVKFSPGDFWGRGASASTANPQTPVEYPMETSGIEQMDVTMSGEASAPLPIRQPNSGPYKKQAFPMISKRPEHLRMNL

With `Nc1cc(C(F)(F)F)c(-c2cc(N3CCOCC3)nc(N3CCOCC3)n2)cn1` [BKM120, buparlisib], in the series with C57BL/6 mice, the “2 h Glucose” value stood at 15.7 ± 2.5 mM and the “4 h Glucose” value was 9.1 ± 1.3 mM. Also, at ATR, the IC50 was 8.09 µM. Moreover, the IC50 at CSF1R is 0.582 µM. In addition, in [1], the “efficacy in Phase I/II clinical trials” value was “minimal”; the “hyperglycemia and hyperinsulinemia in Phase I/II clinical trials” value (“hyperglycemia and hyperinsulinemia” for short) is given as “consistently observed”.
In the case of `Cc1nc(NC(=O)N2CCC[C@H]2C(N)=O)sc1-c1ccnc(C(C)(C)C(F)(F)F)c1` [BYL719, alpelisib], the “2 h Glucose” value in the series with C57BL/6 mice is recorded as 17.4 ± 1.4 mM. Also, the “4 h Glucose” value in the series on C57BL/6 mice is given as 11.9 ± 3.3 mM. Also, the IC50 at VPS34 is 9.1 µM; on PI4Kβ, 0.581 µM; on mTOR it was 9.1 µM; at ATR, 15 µM; on DNAPK, 9.1 µM. In series [1], the “efficacy in Phase I/II clinical trials” value is listed as “minimal”. Also, the “hyperglycemia and hyperinsulinemia” value in series [1] is listed as “consistently observed”.
Turning to `CC(C)NC[C@@H](C(=O)N1CCN(c2ncnc3c2[C@H](C)C[C@H]3O)CC1)c1ccc(Cl)cc1` [GDC-0068, ipatasertib], in the series on C57BL/6 mice, the “2 h Glucose” value amounted to 28.4 ± 2.0 mM and the “4 h Glucose” value turned out to be 25.9 ± 1.2 mM. For the same molecule, the IC50 at p70S6K is 0.862 µM.
As for `Cc1c(CN2CCN(C(=O)[C@H](C)O)CC2)sc2c(N3CCOCC3)nc(-c3cnc(N)nc3)nc12` [GDC-0980, apitolisib], in the series on C57BL/6 mice, the “2 h Glucose” value was 27.0 ± 1.8 mM and the “4 h Glucose” value was 20.5 ± 0.9 mM.
As for `CCn1c(-c2nonc2N)nc2c(C#CC(C)(C)O)ncc(OC[C@H]3CCCNC3)c21` [GSK690693], in the series with C57BL/6 mice, the “2 h Glucose” value came to 27.1 ± 2.6 mM and the “4 h Glucose” value was 21.2 ± 1.5 mM. The induction of hyperglycemia entry with CD-17 scid mice (mouse, in vivo) was “potently induces”.
With `NC1(c2ccc(-c3nc4ccn5c(=O)[nH]nc5c4cc3-c3ccccc3)cc2)CCC1` [MK2206], the “2 h Glucose” value in the series on C57BL/6 mice is given as 20.1 ± 0.8 mM; with BALB/c athymic nude mice (Table 4, MiaPaCa2 tumor bearing BALB/c nude mice, 2 h after MK2206 150 mg/kg p.o.), 5.5 ± 1.0 mM; with BALB/c athymic nude mice (Table 4, naive (tumor-free) BALB/c nude mice, 2 h after MK2206 150 mg/kg), 5.8 ± 0.5 mM; in the series on BALB/c athymic nude mice (Table 5 (insulin table), MiaPaCa2 tumor bearing BALB/c nude mice, 2 h after MK2206 150 mg/kg p.o.) it was 26.2 ± 19.4 mM. The “4 h Glucose” value in the series on C57BL/6 mice turned out to be 9.6 ± 1.3 mM. The “glucose levels after 2 h treatment” value in the series on BALB/c athymic nude mice (BALB/c nude mice, MK2206 150 mg/kg p.o.) is listed as “not increased”. In addition, the “increase in serum insulin after 2 h treatment” value with BALB/c athymic nude mice (BALB/c nude tumor bearing mice, MK2206 150 mg/kg p.o., statistically significant) is given as 65.5 fold. Moreover, the “4 h Insulin” value in the series with BALB/c athymic nude mice (Table 4 (glucose table), MiaPaCa2 tumor bearing BALB/c nude mice, 4 h after MK2206 150 mg/kg p.o.) was found to be 4.9 ± 0.8 ng/mL; in the series on BALB/c athymic nude mice (Table 4 (glucose table), naive (tumor-free) BALB/c nude mice, 4 h after MK2206 150 mg/kg) it was 5.7 ± 1.0 ng/mL; in the series with BALB/c athymic nude mice (Table 5, MiaPaCa2 tumor bearing BALB/c nude mice, 4 h after MK2206 150 mg/kg p.o.), 7.1 ± 2.1 ng/mL. Further, the “−0.5 h Glucose” value came out at 5.6 ± 0.8 mM in the series with BALB/c athymic nude mice (Table 4, MiaPaCa2 tumor bearing BALB/c nude mice, 24 h after ASN or REMD2.59c, mean ± sd, n=3) and 5.7 ± 0.9 mM in the series with BALB/c athymic nude mice (Table 4, naive (tumor-free) BALB/c nude mice, no pretreatment). Further, the “efficacy in Phase I/II clinical trials” value in series [1] is given as “minimal”. For the same molecule, in [1], the “hyperglycemia and hyperinsulinemia” value was “consistently observed”.
`C[C@]1(O)C[C@@H](c2nc(-c3ccc4ccc(-c5ccccc5)nc4c3)c3c(N)nccn32)C1` [OSI-906, linsitinib]: in the series with C57BL/6 mice, the “2 h Glucose” value is on record as 29.3 ± 1.7 mM and the “4 h Glucose” value came to 23.4 ± 1.5 mM.
For `CN(C)C(=N)N=C(N)N` [metformin], the “effect on GSK690693-induced hyperglycemia” value (shortened to “effect”) with CD-17 scid mice is “not prevented or reduce”.
Turning to `N#C[C@@H]1CCCN1C(=O)CNC12CC3CC(CC(O)(C3)C1)C2` [vildagliptin], in the series on CD-17 scid mice, the “effect” value is reported as “not prevented or reduce”.
Take Exendin-4: in the series with CD-17 scid mice, the “effect” value is listed as “not prevented or reduce”.
Regarding “REMD-477: fully human anti-GCGR monoclonal antibody, heavy chain SEQ ID NO: 49 and light chain SEQ ID NO: 50”, in series [2], the “amount of insulin needed” value was “substantially reduce”, the glucose levels entry was “improve” and the “hypoglycemia (low blood glucose levels)” value is on record as “without increasing”.
